Results reported in patent US20150118215A1, “Methods of Inhibiting Cell Proliferation” (The General Hospital Corporation, priority 2012, published 2015).
pIC50: −log10 of the molar value. Where two headings read alike, the source gives them in different places.

Columns and labels:
[1] = system: PC-9 xenografts; conditions: Bill et al.; cited from earlier work
[2] = system: tumor xenografts; conditions: SecinH3 or cytohesin-2 knock-down; Bill et al.; cited from earlier work
[3] = system: H460 xenografts; conditions: Bill et al.; cited from earlier work
[4] = system: EGFR/ErbB-signaling; conditions: SecinH3 or cytohesin-2 knock-down; Bill et al.; cited from earlier work
[5] = system: gefitinib-resistant NSCLC A549 cells; conditions: Bill et al. 2012; cited from earlier work
[6] = system: lung cancer cells; conditions: SecinH3 or cytohesin-2 knock-down; Bill et al.; cited from earlier work
[7] = target: T1, cytohesin-2 (Homo sapiens, UniProt Q99418); test: Radiolabel-based GEF-activity assay ([35S]-GTPγS binding) of full-length cytohesin-2 with myr-Arf1 or myr-Arf6; format: biochemical
T1 construct: steady-state enzymatic GEF-activity analysis of full-length cytohesin-2 or Sec7 domain with Arf1 and Arf6; made in house; host or cells: E. coli BL21DE3
T1 sequence (Q99418 1-400): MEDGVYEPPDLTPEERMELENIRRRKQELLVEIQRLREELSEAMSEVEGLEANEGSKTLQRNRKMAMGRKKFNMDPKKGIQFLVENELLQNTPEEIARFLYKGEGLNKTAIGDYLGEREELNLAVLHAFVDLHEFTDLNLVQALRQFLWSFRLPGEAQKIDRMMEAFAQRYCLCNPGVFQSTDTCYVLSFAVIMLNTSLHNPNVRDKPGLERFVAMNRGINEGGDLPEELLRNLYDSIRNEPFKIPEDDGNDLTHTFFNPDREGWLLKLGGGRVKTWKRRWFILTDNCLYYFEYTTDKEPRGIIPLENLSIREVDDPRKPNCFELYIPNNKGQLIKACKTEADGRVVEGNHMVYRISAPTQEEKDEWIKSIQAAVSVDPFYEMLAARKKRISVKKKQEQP
Description: Two assays were used to determine the GDP/GTP-exchange activity of both full-length cytohesin-2 and Sec7 domain.
a) Radiolabel-Based Assay.
The lipids were dissolved in chloroform. […] Proteins were trapped on nitrocellulose filters.
To test the potential signaling between V-ATPase and cytohesin-2/Arf GTP-binding proteins, a GEF-activity assay was established for cytohesin-2 (wt) and myristoylated myr-Arf6 (wt) and myr-Arf1 (wt) GTP-binding proteins (FIG. 2A). Human Arf1 was co-expressed with yeast N-myristoyltransferase in E. coli BL21/DE3 strain. Recombinant myr-Arf1 was purified from the E. coli lysate (A1) using an AKTApurifier equipped with HiTrapQ, Superdex200 columns (A2), and Phenyl Sepharose HP column (A3). Human Arf6 was also co-expressed with yeast N-myristoyltransferase in E. coli BL21/DE3 strain. Recombinant myr-Arf6 was extracted from insoluble fraction using Triton X-100 (B1). The extract was precipitated by 35% ammonium sulfate and myr-Arf6 purified with HiTrapQ column (B2). […] Several soluble, cell permeable and fluorescently labeled a2N1-17 derived peptides were synthesized, which were used in the current GEF-activity and structural studies in vitro.

[8] = target: T2, Sec7 domain of cytohesin-2 (Homo sapiens, UniProt Q99418); test: Tryptophan fluorescence-based GTPγS binding (GEF-activity) assay of Sec7 domain; format: biochemical; conditions: purified Sec7 domain; truncated [Δ17]Arf1 as substrate; read-out: IC50, inhibition of enzymatic GEF-activity of Sec7 with [Δ17]Arf1
T2 construct: The Sec7 domain of human cytohesin-2 (61-252aa) was expressed in BL21/DE3 cells; GST (N, cleaved yes); made in house; host or cells: E. coli BL21/DE3
T2 sequence (Q99418 61-252): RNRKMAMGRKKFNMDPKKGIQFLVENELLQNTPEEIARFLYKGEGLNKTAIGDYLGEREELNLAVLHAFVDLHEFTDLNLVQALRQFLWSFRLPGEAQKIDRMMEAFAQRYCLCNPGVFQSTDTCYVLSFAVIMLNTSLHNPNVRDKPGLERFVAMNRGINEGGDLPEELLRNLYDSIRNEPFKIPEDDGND
Description: b) Tryptophan Fluorescence-Based GTPγS Binding Assay.
In this assay, exchange is followed in real time. […] These are soluble in both GDP and GTP bound forms (myr Arf-GTP requires a hydrophobic surface for stability) allowing exchange to occur in the absence of lipid or detergent, which is desirable because lipid or detergent can scatter light and possibly confound interpretation of changes in fluorescence. To monitor tryptophan fluorescence, the fluorescent spectra of [Δ17]Arf1 in GDP-bound and GTPγS-bound forms were obtained at an excitation wavelength of 285 nm using a PTI spectrofluorimeter. […] Measurements were performed at 37° C. in 50 mM HEPES-KOH, 100 mM KCl, 1 mM MgCl2, 1 mM DTT, 10 μM GTPγS, 1 μM [Δ17]Arf1 or [Δ13]Arf6 and 10 nM Sec7-domain. […] Data were fitted by single exponential curve and analyzed using Microsoft Excel.
This assay allows real-time measurements of the GEF Sec7 domain-induced nucleotide exchange. [Δ17]Arf1 and [Δ13]Arf6, which are soluble in the GTP-bound form, were used as substrates, thereby eliminating the need for phospholipid or detergent in the assay. […] Activation of [Δ17]Arf1 or [Δ13]Arf6 from the GDP-bound form to the GTPγS-bound form was monitored by tryptophan fluorescence (emission/excitation wavelengths of 285/335 nm) (FIG. 3A).

[9] = system: gefitinib-resistant NSCLC H460 cells; conditions: Bill et al. 2012; cited from earlier work
[10] = system: Human NSCLC A549 cells; test: Cell proliferation assays (MTT, direct cell counting); format: cell-based; conditions: A549, wild-type EGFR, KRas-G12S; three days treatment
Description: Cell Proliferation Assays—
First, MTT proliferation assay was carried out using cell growth determination kit according to manufacturer instructions (Sigma). Human NSCLC A549 cells which are expressing wild-type EGFR with KRas-G12S activation mutation were studied in these experiments. […] Medium was changed daily for three days, and cells were stained with MTT and DAPI when indicated.
Second, direct cells counting assays were also performed as follows. Microscopic images of 0.317 mm^2 area each well were acquired for MTT stained cells and cells were counted using ImageJ (NIH). […] Alternatively, the cells were stained with DAPI and microscopic images of whole wells were acquired using DeltaVision system (Applied Precision). Cells were counted using Particle Tracker PlugIn for ImageJ as above (FIG. 13).

COc1nc(-c2ccc3c(c2)OCO3)n(-c2ccc(NC(=O)CSc3ccccc3)cc2)n1 [SecinH3]
action in vivo in mice bearing PC-9 xenografts [1]: anti-proliferative and pro-apoptotic action | growth of tumor xenografts in nude mice model in vivo [2]: reduction of growth | action in vivo in mice bearing H460 xenografts [3]: anti-proliferative and pro-apoptotic action | EGFR/ErbB-signaling [4]: reduction | proliferation of gefitinib-resistant NSCLC A549 cells [5]: efficiently reduced | cancer cell proliferation in vitro [6]: suppression | pIC50 ([7]; myr-Arf1 as substrate, azolectin, read-out: IC50, inhibition of enzymatic GEF-activity of cytohesin-2 with myr-Arf1): < 3.82 | pIC50 ([7]; myr-Arf6 as substrate, PIP2-containing liposomes, read-out: IC50, inhibition of enzymatic GEF-activity of cytohesin-2 with myr-Arf6): < 3.82 | pIC50 [8]: 5.16 | proliferation of gefitinib-resistant NSCLC H460 cells [9]: efficiently reduced | inhibition of proliferation of human lung cancer A549 cells [10]: anti-proliferative action
